The nature of the data set: gradient 5% acetonitrile 3 min, to 50% in 2 min, to 85% in 15 min, held 3 min, 100 µL/min. Conditions: column: Zorbax Extend-C18 2.1 x 50 mm; eluents: water / acetonitrile, 0.1% formic acid. An outline of the steps:
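The system's dead and dwell volumes were 40 μL and 900 μL, with a Zorbax Extend-C18 column (2.1 × 50 mm, 1.8 μm) run at 100 μL/min in water and acetonitrile containing 0.1% formic acid each. Pure standards were analyzed in mixtures of ~100 molecules by HPLC–quadrupole time-of-flight mass spectrometry in positive and negative ionization mode. Retention time was assigned from computationally picked, manually inspected adduct peaks.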
`O=C(O)c1ccc2c(c1Nc1ccccc1)C(=O)c1ccccc1C2=O`: the RP-LC retention time came out at 1020 s. As for `Cc1cccc(C(C)C)c1NC(=O)C1CCN(S(C)(=O)=O)c2ccccc2O1` (centres undefined), the RP-LC retention time is 957 s. Regarding `COC(=O)c1ccccc1NC(=O)c1c(O)c2cccnc2n(-c2ccc(F)cc2)c1=O`, the RP-LC retention time stood at 1180 s. The same measure for `O=C(C1COCC(=O)N1Cc1ccccc1)N1CCN(c2ccc(C(F)(F)F)cn2)CC1` (centres undefined): 782 s; for `Cc1ccc2[nH]cc(CCNC(=O)c3sc4ncccc4c3-n3cccc3)c2c1`: 1070 s. `COc1ccc(C(O)CN2CCN(c3cccc(OC)c3)CC2)cc1` (centres undefined) gave an RP-LC retention time of 647 s. `Cc1cc2n(n1)CCC(=O)N2CCCC(=O)NCCCN1CCc2ccccc2C1` showed an RP-LC retention time of 580 s.

As to `CCC(C)NC(=O)C1CCCN(c2ncccc2-c2noc(C3CCC3)n2)C1` (centres undefined), the RP-LC retention time was found to be 930 s. In turn, `CCOCCCNC(=O)C1c2ccccc2C(=O)N(C)C1c1cccs1` (centres undefined) returned an RP-LC retention time of 722 s.

`Cc1ccc(Nc2c(-c3ccc(O)cc3)nc3ccc(Br)cn23)cc1` registered an RP-LC retention time of 726 s. In the case of `CCOc1ccc(CNC(=O)CCc2nnc3c4cc(-c5ccccc5)nn4ccn23)cc1` it was 785 s; in that of `CCN(CC)C(=O)c1ccc(-c2nc3cc(NS(=O)(=O)c4cc(C)ccc4C)ccc3n2C)cc1`, 739 s; in that of `Cc1oc(C(C)C)nc1C(=O)NCc1cccc(C(F)(F)F)c1`, 1080 s. Take `NC(=O)C1CCN(C(=O)COCc2cc(-c3cccs3)on2)CC1`: the RP-LC retention time came out at 640 s. `O=C(NCCCc1ccccc1)c1nnc(-c2ccc(S(=O)(=O)N3CCOCC3)cc2)o1` came in with an RP-LC retention time of 911 s.

`CC(C)(Oc1ccc(Cl)cc1)C(=O)Nc1nnc(C2CC(=O)N(c3ccccc3)C2)o1` (centres undefined) came in with an RP-LC retention time of 793 s.

On to `COc1ccc(C(=O)N2CCN(c3nc(-c4ccccc4)no3)CC2)cc1OC`, for which the RP-LC retention time was determined as 849 s. Regarding `COc1cccc(NC(=O)Nc2ccc3nc4n(c(=O)c3c2)CCC4)c1`, the RP-LC retention time was 673 s.

`CCOC(=O)c1c(S(=O)(=O)N2CCC(C(=O)Nc3cccc(F)c3)CC2)c(C)n(C)c1C` yielded an RP-LC retention time of 862 s. The same measure for `COc1cc(C(=O)Nc2nc(-c3ccc4c(c3)N(C)C(=O)CO4)cs2)cc(OC)c1OC`: 860 s; for `Cc1ccc(NC(=O)N2C[C@H](c3nc(-c4ccncc4)no3)[C@@H](C)C2)cc1`: 795 s; for `c1ccc(-c2nc(C3CCN(Cc4cccs4)C3)no2)nc1` (centres undefined): 583 s. In the case of `CCOC(=O)c1cccc(NC(=O)N2CCc3cn(C)c4cccc(c34)C2)c1` it was 1210 s; in that of `CCNC(=O)N1CC=C(C(=O)Nc2ccc(C)cc2)CC1`, 798 s; in that of `O=C(Nc1ccccc1Cl)N1CCC(N2CC(F)(F)C[C@H]2COCC2CC2)CC1`, 720 s. Turning to `COCCCNC(=O)CN1C(=O)C2CCCCN2c2ccc(C(=O)N3CCCC3)cc21` (centres undefined), the RP-LC retention time came out at 696 s. Turning to `O=C(Oc1ccc[nH]c1=O)c1cccc(Cl)c1`, the RP-LC retention time was 756 s. As for `COc1ccc2[nH]c(C(=O)N3CCN(C(=O)c4ccco4)CC3)cc2c1`, the RP-LC retention time came to 706 s. The same measure for `COc1cccc(-c2noc(Cn3c(=O)n(-c4ccc(F)cc4)c(=O)c4sccc43)n2)c1`: 952 s. In turn, `CCN(CC)CCCC(C)Nc1ccnc(/C=C/c2ccc(Cl)cc2)c1` (centres undefined) had an RP-LC retention time of 602 s.

Compound `CC(C)n1c(-c2cccc(C(=O)N3CCC4(CC3)OCCO4)c2)nc2cccnc21` had an RP-LC retention time of 693 s.

`CCn1ccc2c(cc(C(=O)Nc3cc(C)c(Cl)cc3OC)n2C)c1=O` had an RP-LC retention time of 933 s. With `COCCCNC(=O)C1c2ccccc2CC(=O)N1Cc1ccccc1` (centres undefined), the RP-LC retention time came to 789 s. In the case of `O=C(c1cnccn1)N1CCCC1c1noc(CO)n1` (centres undefined), the RP-LC retention time turned out to be 572 s. The same measure for `COCc1nc(C2CCN(C(=O)C3CC3)C2)no1` (centres undefined): 626 s.

`c1cc(-c2nc3c(c(N4CCSCC4)n2)CCC3)ccn1` showed an RP-LC retention time of 675 s. The compound `CC1CCN(c2cc3c(cc2NC(=O)COc2ccc(Cl)cc2)n(C)c(=O)c(=O)n3C)CC1` yielded an RP-LC retention time of 1120 s. `COc1ccc(NC(=O)N(Cc2nnc3n2CCCCC3)c2cccc(OC)c2)cc1`: the RP-LC retention time turned out to be 700 s. In turn, `CCc1cc(=O)n(CC(=O)Nc2cc(C)on2)c(-c2ccccc2)n1` returned an RP-LC retention time of 938 s. The compound `CCc1cc(C(=O)Nc2cc(F)ccc2C)nc2ccnn12` displayed an RP-LC retention time of 1090 s. The same measure for `COc1ccc(-c2cc(=O)c3cc(OC(=O)c4ccncc4)ccc3o2)cc1`: 832 s; for `O=C(C1CCN(c2cnc(N3CCOCC3)nc2)CC1)N1CCCCC1`: 646 s. `Cc1ccc(NC(=O)C2CCN(S(=O)(=O)c3cn(C)cn3)CC2)cc1C` yielded an RP-LC retention time of 734 s. The same measure for `Cc1ccc(Cl)cc1N1CCN(c2cc(C(=O)O)c3cc(NC(=O)C4CCCC4)ccc3n2)CC1`: 851 s; for `CCC(=O)Nc1c(C)noc1/C=C/c1ccc(S(=O)(=O)N2CCN(c3ccccn3)CC2)s1`: 677 s; for `CC1CCCN(c2ccc(-c3noc(CN4CCN(C(C)C)CC4)n3)cn2)C1` (centres undefined): 628 s. `O=C(Cn1c(=O)c(=O)n(Cc2ccncc2)c2ncccc21)NCCc1ccc(Cl)cc1` had an RP-LC retention time of 633 s. On to `O=C(CSc1ccc(N2CCCC(C(=O)NC3CC3)C2)nn1)Nc1ccc(F)cc1` (centres undefined), for which the RP-LC retention time worked out at 629 s.

In turn, `O=C(NC1CCCCC1)C1c2cccn2CC(=O)N1Cc1ccc(F)cc1` (centres undefined) showed an RP-LC retention time of 918 s. Compound `Cc1cc(C)c(NC(=O)COc2cc(C(F)(F)F)c3c(C)nn(C)c3n2)c(C)c1` gave an RP-LC retention time of 1060 s. In turn, `CCOC(=O)c1c(C)[nH]c(C(=O)N2CCC(CC(=O)NCc3ccc(OC)cc3)CC2)c1C` had an RP-LC retention time of 694 s. Compound `CCOC(=O)C1CCCN(C(=O)Cc2c(C(=O)O)c(C)cn2CC)C1` (centres undefined) had an RP-LC retention time of 727 s.

`Cn1cc2nc(SCC(=O)Nc3ccc(Cl)cc3F)n(CC3CC3)c(=O)c2n1` showed an RP-LC retention time of 954 s. `Cc1ccc(C)c(NC(=O)C2CCCN(S(=O)(=O)c3cc(-c4noc(C)n4)cs3)C2)c1` (centres undefined): the RP-LC retention time is 1060 s. The same measure for `COc1cc(NC(=O)C2CCN(c3nccnc3Sc3ccccc3)CC2)cc(OC)c1OC`: 984 s; for `Cc1ccc(Nc2nc(C(=O)NCc3cccnc3)nc3ccccc23)cc1`: 609 s. `COC(=O)c1ccc2c(=O)n(-c3cccc(C)c3)c(N3CCCC3)nc2c1`: the RP-LC retention time turned out to be 953 s. In the case of `O=C(C1CCN(c2nccnc2Sc2ccccc2)CC1)N1CCN(c2ccccn2)CC1` it was 682 s. On to `COc1ccc(C2(C(=O)N3CCN(S(=O)(=O)c4c(C)nn(C(C)C)c4C)CC3)CC2)cc1`, for which the RP-LC retention time worked out at 889 s. In turn, `COc1cccc(S(=O)(=O)Nc2ccc(C(=O)Nc3ccncc3)cc2)c1` gave an RP-LC retention time of 578 s.

As to `CC(C)NC(=O)c1ccc(C(C)C)cc1`, the RP-LC retention time stood at 918 s. The same measure for `O=C(Cn1nc(-c2cccnc2)ccc1=O)Nc1nc2ccccc2[nH]1`: 528 s. For the compound `CC(C)CCNC(=O)CC1Sc2ncccc2N(CC(C)C)C1=O` (centres undefined), the RP-LC retention time was determined as 868 s. Compound `O=S(=O)(Nc1cccc(Cl)c1)c1ccc2nncn2c1` came in with an RP-LC retention time of 700 s.

`COC(=O)C(C)NC(=O)NC1CCN(C2=NS(=O)(=O)C(c3ccccc3)=C2C)CC1` (centres undefined) yielded an RP-LC retention time of 718 s. The same measure for `Cc1ccc(NC(=O)c2cc(C(C)C)n3nccc3n2)cc1`: 1140 s. As to `CC(C)c1ccc2c(c1)-c1ccccc1S(=O)(=O)N2CC(=O)NCCN1CCOCC1`, the RP-LC retention time was found to be 692 s. As to `CN(CCc1noc(C2CN(Cc3ccc(Cl)c(F)c3)C2)n1)S(C)(=O)=O`, the RP-LC retention time stood at 633 s. On to `Cc1ccc(NC(=O)Nc2cccc(-c3ccc(N4CCOCC4)nn3)c2)cc1`, for which the RP-LC retention time was 704 s. Turning to `Clc1ccc2nc(-c3ccccc3)c(Nc3ccc4c(c3)OCO4)n2c1`, the RP-LC retention time is 781 s. For the compound `CCN1C(=O)c2cccnc2Sc2cc(NC(=O)c3ccc(C)cc3C)ccc21`, the RP-LC retention time amounted to 918 s.

Compound `Cc1ccc(-c2nc(NCC3CCCO3)ncc2C(=O)O)cc1` (centres undefined) returned an RP-LC retention time of 735 s. On to `CCc1nnc(-c2ccc3ccn(CC(=O)N4CCN(c5cccc(OC)c5)CC4)c3c2)o1`, for which the RP-LC retention time came out at 864 s.

`N#Cc1ccc(S(=O)(=O)N2CC(c3nc(CCOCc4ccccc4)no3)C2)cc1` had an RP-LC retention time of 980 s. `CCNC(=O)N1CCC(c2noc(-c3ccccc3)n2)C1` (centres undefined) yielded an RP-LC retention time of 724 s. Turning to `COc1ccc(OCc2nn3c(-c4ccc(OC)c(OC)c4)nnc3s2)cc1`, the RP-LC retention time came to 867 s. In the case of `O=C1NCCOCCN(C(=O)COc2ccccc2)[C@H]2CCC[C@@H]12`, the RP-LC retention time was found to be 683 s. Turning to `O=C(NC1CCCCCC1)c1cccc(Cn2cncn2)c1`, the RP-LC retention time came out at 729 s. Compound `Cn1c(=O)c2nc(SCCC(=O)Nc3ccc(Cl)cc3)n(C)c2n(C)c1=O` displayed an RP-LC retention time of 732 s.

The record behind these values is the METLIN SMRT retention time set (Domingo-Almenara et al. 2019).
